{"source": "patent US7825253B2", "about": "“2-aminoquinoline derivatives” (Hoffmann-La Roche Inc., priority 2006, dated 2010)"}
{"molecular_target": "T1, recombinant human 5-HT5A receptor (Homo sapiens, UniProt P47898)", "T1 construct": "expressed in transfected cells; host or cells: Human Embryonic Kidney-EBNA (HEK-EBNA) cells, transient cDNA expression; membranes", "T1 sequence (P47898 whole entry)": "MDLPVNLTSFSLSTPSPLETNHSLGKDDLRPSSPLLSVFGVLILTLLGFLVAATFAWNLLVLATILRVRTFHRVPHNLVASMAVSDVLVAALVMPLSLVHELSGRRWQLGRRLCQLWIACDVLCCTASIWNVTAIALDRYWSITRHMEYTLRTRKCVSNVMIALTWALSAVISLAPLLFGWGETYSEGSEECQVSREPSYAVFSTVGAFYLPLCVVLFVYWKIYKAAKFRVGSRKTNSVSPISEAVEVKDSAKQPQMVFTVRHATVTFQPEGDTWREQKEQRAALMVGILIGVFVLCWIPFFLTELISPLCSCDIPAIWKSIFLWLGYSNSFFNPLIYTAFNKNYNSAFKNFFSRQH", "experiment": "[3H]LSD radioligand binding assay", "conditions": "[3H]LSD approx. 1 nM; membranes from HEK-EBNA cells transiently expressing 5-HT5A; Ki from IC50 by Cheng-Prussoff", "experimental": "A [^3H]LSD radioligand binding assay was used to determine the affinity of the compounds for the recombinant human 5-HT5A receptor, in membranes from transiently (cDNA) expressed 5-HT5A receptors in Human Embryonic Kidney-EBNA (HEK-EBNA) cells. Assay buffer consisted of Tris (50 mM) buffer containing 1 mM EGTA, 10 mM MgCl2 (pH 7.4) and 10 μM pargyline. The binding assay was carried out in 96-well-plates in the presence of [^3H]LSD (approximately 1 nM), approximately 2 μg/well of membrane protein, and 0.5 mg of Ysi-poly-l-lysine SPA beads in a final volume of 200 μl of buffer. Non-specific binding was defined using methiothepin 2 μM. Compounds were tested at 10 concentrations. All assays were conducted in duplicate and repeated at least two times. Assay plates were incubated for 120 min at room temperature before centrifugation. Bound ligand was determined using a Packard Topcount scintillation counter. IC50 values were calculated using a non-linear curve fitting program and Ki values calculated using the Cheng-Prussoff equation.", "units": {"Ki": "nM"}}
{"smiles": "Cc1ccc(CNc2ccc3c(NS(=O)(=O)c4cc(F)cc(F)c4)cccc3n2)o1", "note": "[Example 60, 3,5-Difluoro-N-{2-[(5-methyl-furan-2-ylmethyl)-amino]-quinolin-5-yl}-benzenesulfonamide]", "Ki": 21.7}
{"smiles": "COc1ccccc1CNc1ccc2c(NS(=O)(=O)c3ccc(F)cc3)cccc2n1", "note": "[Example 61, 4-Fluoro-N-[2-(2-methoxy-benzylamino)-quinolin-5-yl]-benzenesulfonamide]", "Ki": 19.2}
{"smiles": "Cc1ccc(CNc2ccc3c(NS(=O)(=O)c4cccc(F)c4)cccc3n2)o1", "note": "[Example 73, 3-Fluoro-N-{2-[(5-methyl-furan-2-ylmethyl)-amino]-quinolin-5-yl}-benzenesulfonamide]", "Ki": 21.4}
{"smiles": "Cc1ccc(CNc2ccc3c(NS(=O)(=O)c4ccc(F)c(F)c4)cccc3n2)o1", "note": "[Example 74, 3,4-Difluoro-N-{2-[(5-methyl-furan-2-ylmethyl)-amino]-quinolin-5-yl}-benzenesulfonamide]", "Ki": 12.9}
{"smiles": "O=S(=O)(Nc1cccc2nc(NCCOc3ccccc3)ccc12)c1cc(F)cc(F)c1", "note": "[Example 77, 3,5-Difluoro-N-[2-(2-phenoxy-ethylamino)-quinolin-5-yl]-benzenesulfonamide]", "Ki": 19.1}
{"smiles": "CSc1ccccc1CNc1ccc2c(NS(=O)(=O)c3ccc(F)cc3)cccc2n1", "note": "[Example 82, 4-Fluoro-N-[2-(2-methylsulfanyl-benzylamino)-quinolin-5-yl]-benzenesulfonamide]", "Ki": 33.9}
{"smiles": "COc1ccccc1CNc1ccc2c(OCC[S+]([O-])c3ccccc3)cccc2n1", "note": "(stereo not shown) [Example 83, [5-(2-Benzenesulfinyl-ethoxy)-quinolin-2-yl]-(2-methoxy-benzyl)-amine]", "Ki": 95.6}
{"smiles": "COc1ccccc1CNc1ccc2c(OCCS(=O)(=O)c3ccccc3)cccc2n1", "note": "[Example 84, [5-(2-Benzenesulfonyl-ethoxy)-quinolin-2-yl]-(2-methoxy-benzyl)-amine]", "Ki": 88.3}
{"smiles": "Cc1ccc(CNc2ccc3c(NS(=O)(=O)c4cc(F)cc(F)c4)cccc3n2)s1", "note": "[Example 85, 3,5-Difluoro-N-{2-[(5-methyl-thiophen-2-ylmethyl)-amino]-quinolin-5-yl}-benzenesulfonamide]", "Ki": 16.7}
{"smiles": "Cc1ccc(CNc2ccc3c(NCc4c[nH]cn4)cccc3n2)o1", "note": "[Example 87, N5-(1H-Imidazol-4-ylmethyl)-N2-(5-methyl-furan-2-ylmethyl)-quinoline-2,5-diamine]", "Ki": 15.7}
{"smiles": "Cc1ccc(CNc2ccc3c(NCc4cc[nH]n4)cccc3n2)o1", "note": "[Example 88, N2-(5-Methyl-furan-2-ylmethyl)-N5-(1H-pyrazol-3-ylmethyl)-quinoline-2,5-diamine]", "Ki": 32.9}
{"smiles": "Cc1cc2cccc(Nc3ccc4c(NS(=O)(=O)c5cc(F)cc(F)c5)cccc4n3)c2o1", "note": "[Example 89, 3,5-Difluoro-N-[2-(2-methyl-benzofuran-7-ylamino)-quinolin-5-yl]-benzenesulfonamide]", "Ki": 50.6}
{"smiles": "Cc1nc(CNc2cccc3nc(NCc4ccc(C)o4)ccc23)c[nH]1", "note": "[Example 90, N2-(5-Methyl-furan-2-ylmethyl)-N5-(2-methyl-1H-imidazol-4-ylmethyl)-quinoline-2,5-diamine]", "Ki": 52.9}
{"smiles": "Cc1ccc(CNc2ccc3c(NCc4cccc5[nH]ccc45)cccc3n2)o1", "note": "[Example 91, N5-(1H-Indol-4-ylmethyl)-N2-(5-methyl-furan-2-ylmethyl)-quinoline-2,5-diamine]", "Ki": 5.25}
{"smiles": "Cc1ccc(CNc2ccc3c(NCc4nc[nH]c4C)cccc3n2)o1", "note": "[Example 92, N2-(5-Methyl-furan-2-ylmethyl)-N5-(5-methyl-1H-imidazol-4-ylmethyl)-quinoline-2,5-diamine]", "Ki": 14.4}
{"smiles": "Cc1ccc(CNc2ccc3c(Nc4cccc5cc[nH]c45)cccc3n2)o1", "note": "[Example 93, N5-(1H-Indol-7-yl)-N2-(5-methyl-furan-2-ylmethyl)-quinoline-2,5-diamine]", "Ki": 28.2}
{"smiles": "Cc1ccc(CNc2ccc3c(Nc4cccc5[nH]ccc45)cccc3n2)o1", "note": "[Example 94, N5-(1H-Indol-4-yl)-N2-(5-methyl-furan-2-ylmethyl)-quinoline-2,5-diamine]", "Ki": 10.7}
{"smiles": "COc1ccccc1CNc1ccc2c(NCc3[nH]cnc3C)cccc2n1", "note": "[Example 96, N2-(2-Methoxy-benzyl)-N5-(5-methyl-3H-imidazol-4-ylmethyl)-quinoline-2,5-diamine]", "Ki": 19.4}
{"smiles": "COc1ccccc1CNc1ccc2c(NCc3cnc(C)[nH]3)cccc2n1", "note": "[Example 97, N2-(2-Methoxy-benzyl)-N5-(2-methyl-3H-imidazol-4-ylmethyl)-quinoline-2,5-diamine]", "Ki": 31}
{"smiles": "COc1ccccc1CNc1ccc2c(NCc3cc[nH]n3)cccc2n1", "note": "[Example 98, N2-(2-Methoxy-benzyl)-N5-(1H-pyrazol-3-ylmethyl)-quinoline-2,5-diamine]", "Ki": 33.3}
{"smiles": "COc1cccc(OC)c1CNc1ccc2c(NCc3cccnc3)cccc2n1", "note": "[Example 99, N2-(2,6-Dimethoxy-benzyl)-N5-pyridin-3-ylmethyl-quinoline-2,5-diamine]", "Ki": 84.6}
{"smiles": "Cc1ccc(CNc2ccc3c(NCc4nccs4)cccc3n2)o1", "note": "[Example 100, N2-(5-Methyl-furan-2-ylmethyl)-N5-thiazol-2-ylmethyl-quinoline-2,5-diamine]", "Ki": 22.7}
{"smiles": "COc1ccccc1CNc1ccc2c(NCc3cnc[nH]3)cccc2n1", "note": "[Example 101, N5-(3H-Imidazol-4-ylmethyl)-N2-(2-methoxy-benzyl)-quinoline-2,5-diamine]", "Ki": 14.5}
{"smiles": "COc1ccccc1CNc1ccc2c(NCc3cccc4[nH]ccc34)cccc2n1", "note": "[Example 102, N5-(1H-Indol-4-ylmethyl)-N2-(2-methoxy-benzyl)-quinoline-2,5-diamine]", "Ki": 6.41}
{"smiles": "Cc1ccc(CNc2ccc3c(NCc4cccc5c4OCO5)cccc3n2)o1", "note": "[Example 103, N5-Benzo[1,3]dioxol-4-ylmethyl-N2-(5-methyl-furan-2-ylmethyl)-quinoline-2,5-diamine]", "Ki": 6.57}
{"smiles": "Cc1ccc(CNc2ccc3c(NCc4ccccc4N4CCN(C)CC4)cccc3n2)o1", "note": "[Example 105, N2-(5-Methyl-furan-2-ylmethyl)-N5-[2-(4-methyl-piperazin-1-yl)-benzyl]-quinoline-2,5-diamine]", "Ki": 24.1}
{"smiles": "COc1ccccc1CNc1ccc2c(NCc3c[nH]nn3)cccc2n1", "note": "[Example 106, N2-(2-Methoxy-benzyl)-N5-(1H-[1,2,3]triazol-4-ylmethyl)-quinoline-2,5-diamine]", "Ki": 30.4}
{"smiles": "Cc1ccc(CNc2ccc3c(NCc4ccc5[nH]cnc5c4)cccc3n2)o1", "note": "[Example 107, N5-(1H-Benzoimidazol-5-ylmethyl)-N2-(5-methyl-furan-2-ylmethyl)-quinoline-2,5-diamine]", "Ki": 3.92}
{"smiles": "O=S(=O)(Nc1cccc2nc(NCc3ccccc3OC(F)(F)F)ccc12)c1ccc(F)cc1", "note": "[Example 108, 4-Fluoro-N-[2-(2-trifluoromethoxy-benzylamino)-quinolin-5-yl]-benzenesulfonamide]", "Ki": 49.6}
{"smiles": "COc1cccc(OC)c1CNc1ccc2c(NCc3cccc4[nH]ccc34)cccc2n1", "note": "[Example 109, N2-(2,6-Dimethoxy-benzyl)-N5-(1H-indol-4-ylmethyl)-quinoline-2,5-diamine]", "Ki": 97.3}
{"smiles": "COc1ccccc1CNc1ccc2c(NCc3nccs3)cccc2n1", "note": "[Example 110, N2-(2-Methoxy-benzyl)-N5-thiazol-2-ylmethyl-quinoline-2,5-diamine]", "Ki": 16.8}
{"smiles": "Cc1cc2cccc(Nc3ccc4c(NCc5cccc6[nH]ccc56)cccc4n3)c2o1", "note": "[Example 111, N5-(1H-Indol-4-ylmethyl)-N2-(2-methyl-benzofuran-7-yl)-quinoline-2,5-diamine]", "Ki": 10.1}
{"smiles": "Cc1cc2cccc(Nc3ccc4c(Nc5cccc6[nH]ccc56)cccc4n3)c2o1", "note": "[Example 113, N5-(1H-Indol-4-yl)-N2-(2-methyl-benzofuran-7-yl)-quinoline-2,5-diamine]", "Ki": 20.6}
{"smiles": "COc1ccccc1CNc1ccc2c(NCc3ccc4nc[nH]c4c3)cccc2n1", "note": "[Example 114, N5-(3H-Benzoimidazol-5-ylmethyl)-N2-(2-methoxy-benzyl)-quinoline-2,5-diamine]", "Ki": 3.33}
{"smiles": "Cc1ccc(CNc2ccc3c(NCc4cnn[nH]4)cccc3n2)o1", "note": "[Example 115, N2-(5-Methyl-furan-2-ylmethyl)-N5-(3H-[1,2,3]triazol-4-ylmethyl)-quinoline-2,5-diamine]", "Ki": 35.3}
{"smiles": "FC(F)(F)Oc1ccccc1CNc1ccc2c(NCc3cccc4[nH]ccc34)cccc2n1", "note": "[Example 116, N5-(1H-Indol-4-ylmethyl)-N2-(2-trifluoromethoxy-benzyl)-quinoline-2,5-diamine]", "Ki": 32.9}
{"smiles": "FC(F)(F)Oc1ccccc1CNc1ccc2c(NCc3ccc4[nH]cnc4c3)cccc2n1", "note": "[Example 117, N5-(1H-Benzoimidazol-5-ylmethyl)-N2-(2-trifluoromethoxy-benzyl)-quinoline-2,5-diamine]", "Ki": 32.4}
{"smiles": "c1cc(CNc2ccc3c(NCc4cccc5[nH]ccc45)cccc3n2)c2c(c1)OCCO2", "note": "[Example 118, N2-(2,3-Dihydro-benzo[1,4]dioxin-5-ylmethyl)-N5-(1H-indol-4-ylmethyl)-quinoline-2,5-diamine]", "Ki": 5.66}
{"smiles": "Cc1ccc(CNc2ccc3c(Nc4ccc(F)c5[nH]ccc45)cccc3n2)o1", "note": "[Example 119, N5-(7-Fluoro-1H-indol-4-yl)-N2-(5-methyl-furan-2-ylmethyl)-quinoline-2,5-diamine]", "Ki": 8.45}
{"smiles": "Cc1ccc(CNc2ccc3c(NCc4cc(F)cc(F)c4)cccc3n2)o1", "note": "[Example 120, N5-(3,5-Difluoro-benzyl)-N2-(5-methyl-furan-2-ylmethyl)-quinoline-2,5-diamine]", "Ki": 8.45}
